These results are taken from patent US8039420B2, “Fungicidal composition containing acid amide derivative” (Ishihara Sangyo Kaisha, Ltd., priority 2004, dated 2011).

This assay deals with Sphaerotheca fuliginea. Nature of the assay: Test on Preventive Effect Against Cucumber Powdery Mildew. The following applies: 200 ppm, spray on cucumber (Sagamihanpaku) 1.5-leaf stage; area of sporulation 6 to 7 days after inoculation.

Description: In each test, the controlling index was determined on the basis of the following standards:
Cucumber (cultivar: Sagamihanpaku) was cultivated in a plastic pot having a diameter of 7.5 cm, and when it reached 1.5-leaf stage, 10 ml of a chemical solution having the acid amide derivative of the formula (I) or a salt thereof adjusted to a prescribed concentration, was applied by a spray gun. After the chemical solution dried (the same day as the application or the next day), a suspension of conidia of Sphaerotheca fuliginea was sprayed and inoculated and maintained in a constant temperature chamber at 20° C. From 6 to 7 days after the inoculation, the area of sporulation was investigated, and the controlling index was determined in accordance with the above evaluation standards.

As for `Cc1nn(C)c(Cl)c1C(=O)NC(C)(C)C(=O)c1ccccc1` [1-34], the controlling index is 4 (Area of lesions, length of lesions, number of lesions or area of sporulation is less than 10% of non-treated plot).
